Consider one compound from patent publication US9783551B2, “Pyranochromenyl phenol derivative, and pharmaceutical composition for treating metabolic syndrome or inflammatory disease” (GLACEUM, INC., priority 2013, dated 2017).

The subject of one assay is RAW264.7 macrophages. In words: RAW264.7 macrophage NO assay (LPS-induced NO production, Griess reagent). Type of assay: cell-based. Here is the method: (§1) After the pretreatment, the MTT (Sigma, M2128) reagent at a concentration of 0.5 mg/ml was further added thereto. After the cells were cultured in a 5% CO2 incubator for 4 hours, the supernatant was discarded, 150 μl of DMSO was added and was shaken for 30 minutes, and an ELISA micro plate reader (Bio Rad Laboratories Inc., California, USA, Model 680) was used to measure the absorbance at a wavelength of 540 nm. All the experimental values were calculated as an average value of three repeated experimental values of the cell protection rate for the control group, and an experiment of suppressing the NO production for each compound was carried out at a concentration in which no cytotoxicity was shown.
After the reaction, an ELISA micro plate reader (Bio Rad Laboratories Inc., California, USA, Model 680) was used to measure the absorbance at a wavelength of 540 nm. The suppression rate was calculated as a difference in amount of NO produced between the control group and the experimental group, and as shown in the following Table 7, Compounds 4, 5, 15, 16, 18, and the like of the present invention were excellent in the effect of suppressing the production of NO.
On the technique in general: Griess reagent forms a coloured azo dye with nitrite.

In a further assay the test system is BV2 microglia cells. The assay is described as follows: BV2 cell NO assay (LPS-induced NO production, Griess reagent). Type of assay: cell-based. The following applies: Mus musculus, BV-2, LPS 1 μg/ml, 24 hours. Here is the method:
as §1, with “pretreatment, 0.5 mg/ml of” for “pretreatment,”, “reagent” for “reagent at a concentration of 0.5 mg/ml”, “incubator,” for “incubator for 4 hours,”
After the reaction, an ELISA micro plate reader (Bio Rad Laboratories Inc., California, USA, Model 680) was used to measure the absorbance at a wavelength of 540 nm. The suppression rate was calculated as a difference in amount of NO produced between the control group and the experimental group, and as shown in the following Table 6 and FIG. 6, Compounds 4, 5, 15, 16, 18, and the like of the present invention were excellent in the effect of suppressing the production of NO, and the effect is also about 5 times to about 9 times better than that of glabridin.

Another assay has as its system DIO mice. The assay is described as follows: Anti-obesity effect for DIO mice (body weight). Type of assay: in vivo, C57BL/6 mice. The note with it: Mus musculus, 672 h; 4 weeks, 150 mg/kg, oral gavage once daily. Here is the method:
Five-week-old female C57BL/6 mice (Narabio Co., Ltd.) were purchased and fed with only high-fat diet for at least 10 weeks to produce diet induced obesity ([…]) mice. Samples were exactly taken from Preparation Example 1 (glabridin) and the compounds of Examples of the present invention (Compounds 1 to 5, 7, 9, 11, 14 to 16, 21, and 23) according to the administration dose and put into Falcon tubes, 3 ml of a 0.5% methyl cellulose aqueous solution was added thereto and a vortex mixer was used to primarily mix the ingredients in a soft manner, and then a homogenizer (30,000 rpm, Ultra-Turrax® T10 Basic, IKA) was used to treat the sample for 3 minutes while 1.5 ml of a 0.5% methyl cellulose aqueous solution was added thereto. The sample thus prepared was administered through oral gavage using a disposable plastic syringe once daily for 28 days (4 weeks). The body weight was measured twice a week while the DIO mice were bred in this manner. Based on the data thus calculated, the anti-obesity effect (%) was calculated according to the equation defined as follows. Anti-Obesity Effect={(Body weight of control group)−(Body weight of experimental group)}/(Body weight of control group)×100

For another assay, the target named is PTP1B (Homo sapiens (Human), UniProt P18031). In words: Experiment of PTP1B inhibition (p-NPP dephosphorylation). The note with it: 2 mM p-NPP substrate, 30° C., 30 minutes. Type of assay: biochemical. An excerpt:
With respect to PTP1B, the degrees of inhibition (IC50 The half maximal inhibitory concentration) of glabridin, and compounds of Preparation Example 2 (Compound 1), Example 2 (Compound 3), Example 3 (Compound 4), Example 4 (Compound 5), Example 13 (Compound 14), Example 14 (Compound 15), Example 15 (Compound 16), Example 17 (Compound 18), Example 18 (Compound 19) and Example 20 (Compound 21) were compared to each other. For this purpose, the degree of inhibition activity for PTP1B was investigated by using 2 mM p-nitrophenyl phosphate (p-NPP) as a substrate to measure the dephosphorylation degree. First, PTP1B diluted with distilled water was reacted with 2 mM p-nitrophenyl phosphate {p-NPP, 0.1 M NaCl, 1 mM EDTA, 50 mM citrate pH 6.0, and 1 mM dithiothreitol (DTT)} and Compound 1 at various concentrations at 30° C. for 30 minutes, and then the reaction was terminated with a 1 N-sodium hydroxide (NaOH) solution. The absorbance of the samples thus prepared was measured to confirm the inhibition degree (IC50: The half maximal inhibitory concentration) for PTP1B activity according to the concentration of Compound 1. Even for glabridin, Compound 3, Compound 4, Compound 5, Compound 14, Compound 15, Compound 16, Compound 18, Compound 19, and Compound 21, the same measurement was performed.

For assay [1], the system named is db/db mice. In words: Anti-diabetic effects for db/db mice (glycosylated hemoglobin). Format: in vivo, C57BLKS/J-db/db mice. Here is the method:
(§2) 5-week-old male C57BLKS/J-db/db mice (Central Lab. Animal Inc.) were purchased and acclimatized for 2 weeks, and then used in this experiment. Samples were exactly taken from the compounds prepared in Examples 4 and 15 of the present invention (Compounds 5 and 16) according to the administration dose and put into Falcon tubes, a 0.5% methyl cellulose aqueous solution stored refrigerated was placed at room temperature to allow the excipients to be warmed at room temperature, 16 ml of each of the excipients was added to a 50 ml Falcon tube, and a vortex mixer was used to primarily mix the ingredients in a soft manner, and then a suspension was obtained and homogenized by treating the sample for 3 minutes using a homogenizer (30,000 rpm, CPT-1600E, Kinemtica, Switzerland), and then ultrasonically treated for 30 minutes. The sample thus prepared was administered through oral gavage using a disposable plastic syringe equipped with a sonde once daily for 42 days (6 weeks).
The glycosylated hemoglobin (HbA1c) was measured while the db/db mice were bred. The gyclosylated hemoglobin was measured at 2 days prior to group separation, 4 weeks after administration, and 6 weeks after administration, and was measured by fasting the mice for 4 hours on the measurement date, collecting blood from the caudal vein before each material was administered, and using a device for measuring glycosylated hemoglobin (SD A1cCare, SD Biosensor, Inc., Korea).

For assay [2], the system named is db/db mice. In words: Liver histology (H&E, perilipin antibody) of db/db mice after 6 weeks. Type of assay: in vivo, C57BLKS/J-db/db mice. The following applies: administered for 6 weeks, compared with control group. Here is the method:
as §2
The mouse to which Compound 16 had been administered for 6 weeks in this experiment was finally sacrificed and autopsied to collect a liver, the liver was excised and each stained with hematoxylin and eosin (H&E) and perilipin antibody, the stained tissue was observed using a microscope, and the results are shown in FIGS. 2 to 5. […]

Each structure is given as a SMILES string.

PTP1B, sequence (P18031 whole entry, species assumed): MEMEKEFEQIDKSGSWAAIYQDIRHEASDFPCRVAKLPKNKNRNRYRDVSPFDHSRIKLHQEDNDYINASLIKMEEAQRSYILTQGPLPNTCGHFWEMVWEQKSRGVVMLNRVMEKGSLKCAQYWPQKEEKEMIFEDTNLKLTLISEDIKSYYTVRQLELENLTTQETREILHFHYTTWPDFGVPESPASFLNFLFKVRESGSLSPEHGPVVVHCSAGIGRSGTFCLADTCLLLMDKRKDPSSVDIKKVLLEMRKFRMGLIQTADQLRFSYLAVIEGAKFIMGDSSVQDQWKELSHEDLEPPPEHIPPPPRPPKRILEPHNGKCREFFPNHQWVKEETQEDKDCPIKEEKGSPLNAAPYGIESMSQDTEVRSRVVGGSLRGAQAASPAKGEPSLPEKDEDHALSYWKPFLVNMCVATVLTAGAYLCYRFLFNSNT

What is called IC50 is the concentration that gives 50% inhibition. Read a low IC50 as greater potency in that assay. The inhibition in vivo is the share of the control response that was lost under treatment. As for `CCCOc1ccc(C2COc3c(ccc4c3CCC(C)(C)O4)C2)c(O)c1` (stereo not drawn) [Compound 16, 3-(2-hydroxy-4-propoxyphenyl)-8,8-dimethyl-2,3,4,8,9,10-hexahydropyrano [2,3-f] chromene], the IC50 was found to be 4400 nM in the assay on RAW264.7 macrophages (Mus musculus, RAW264.7, NO production, LPS 1 μg/ml, 24 hours); 2300 nM in the assay on BV2 microglia cells; 1900 nM on PTP1B. Also, the “effect of suppressing the production of NO” value with RAW264.7 macrophages (RAW264.7 macrophages, in words) was “excellent”. The inhibition in vivo at 150 mg/kg with DIO mice worked out at 7%. The “HbA1c (%) 4 weeks” value with db/db mice [1] (4 weeks after administration, 300 mg/kg oral once daily) was determined as 6.7%. The “HbA1c (%) 6 weeks” value in the assay with db/db mice [1] (6 weeks after administration, 300 mg/kg oral once daily) was determined as 6.2%. In addition, the “HbA1c (%) Before administration” value in the assay on db/db mice [1] (before administration, 300 mg/kg group) came to 4.7%. The “liver tissue observation by microscope” value with db/db mice [2] is “small and compact adipocytes”.
